We go through 27 compounds from patent publication US12134620B2 (ARAXES PHARMA LLC, priority 2018, dated 2024).

Molecules are shown by their SMILES.

This assay deals with T1, KRAS G12C 1-169, his-tagged protein, GDP-loaded (Homo sapiens, UniProt P01116, G12C).
T1 construct: KRAS G12C 1-169, his-tagged protein, GDP-loaded; His tag
In words: Biochemical assay: covalent modification of KRAS G12C, analysed by mass spectrometry (RapidFire/TOF or Q-Exactive). Further: time not given here. The assay is classed as binding. Conditions: Modification activity, modification percentage from MS peak intensities. The essentials:
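Covalent adduct formation was quantified by intact-protein mass spectrometry, either TOF or C4 LC-Q Exactive Plus, as percent modified versus unmodified protein after deconvolution. Compounds at 8 or 32 μM final were incubated with 0.5 or 2 μM GDP-bound KRAS G12C(1-169)-His in Hepes/NaCl/MgCl2 buffer before acid quench.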
As to `C=CC(=O)N1CC2(CCN(c3ncnc(-c4c(C)ccc5[nH]ncc45)c3OC)C2)C1` [Compound I-243, 1-(6-(5-methoxy-6-(5-methyl-1H-indazol-4-yl)pyrimidin-4-yl)-2,6-diazaspiro[3.4]octan-2-yl)prop-2-en-1-one], the Binding % result was “+ (+ indicates binding activity greater than 0% and up to 50%)”.

On to `C=CC(=O)N1CC2(CCN(c3ncnc(Oc4ccccc4C(N)=O)c3C#N)C2)C1` [Compound I-244, 2-((6-(2-acryloyl-2,6-diazaspiro[3.4]octan-6-yl)-5-cyanopyrimidin-4-yl)oxy)benzamide], for which the Binding % result was “+ (+ indicates binding activity greater than 0% and up to 50%)”.

Regarding `C=CC(=O)N1CC2(CCN(c3ncnc(-c4c(C)ccc5[nH]ncc45)c3O)C2)C1` [Compound I-245, 1-(6-(5-hydroxy-6-(5-methyl-1H-indazol-4-yl)pyrimidin-4-yl)-2,6-diazaspiro[3.4]octan-2-yl)prop-2-en-1-one], the Binding % entry was “+ (+ indicates binding activity greater than 0% and up to 50%)”.

On to `C=CC(=O)N1CC2(CCN(c3ncnc(N4CCCC4CO)c3C#N)C2)C1` (stereo not drawn) [Compound I-246, 4-(2-acryloyl-2,6-diazaspiro[3.4]octan-6-yl)-6-(2-(hydroxymethyl)pyrro-lidin-1-yl)pyrimidine-5-carbonitrile], for which the Binding % entry was “+ (+ indicates binding activity greater than 0% and up to 50%)”.

Regarding `C=CC(=O)N1CC2(CCN(c3ncnc(N4CCC[C@@H]4C(N)=O)c3C#N)C2)C1` [Compound I-247, (R)-1-(6-(2-acryloyl-2,6-diazaspiro[3.4]octan-6-yl)-5-cyanopyrimidin-4-yl)pyrrolidine-2-carboxamide], the Binding % result was “+ (+ indicates binding activity greater than 0% and up to 50%)”.

Regarding `C=CC(=O)N1CC2(CCN(c3ncnc(N4CCC[C@H]4C(N)=O)c3C#N)C2)C1` [Compound I-248, (S)-1-(6-(2-acryloyl-2,6-diazaspiro[3.4]octan-6-yl)-5-cyanopyrimidin-4-yl)pyrrolidine-2-carboxamide], the Binding % result was “+ (+ indicates binding activity greater than 0% and up to 50%)”.

Regarding `C=CC(=O)N1CC2(CCN(c3ncnc(-c4c(C)ccc5[nH]ncc45)c3C3CC3)C2)C1` [Compound I-249, 1-(6-(5-cyclopropyl-6-(5-methyl-1H-indazol-4-yl)pyrimidin-4-yl)-2,6-diazaspiro[3.4]octan-2-yl)prop-2-en-1-one], the Binding % result is “+ (+ indicates binding activity greater than 0% and up to 50%)”.

On to `C=CC(=O)N1CC2(CCN(c3ncnc(-c4c(C)ccc5[nH]cnc45)c3C#N)C2)C1` [Compound I-250, 4-(2-acryloyl-2,6-diazaspiro[3.4]octan-6-yl)-6-(5-methyl-1H-benzo[d]imidazol-4-yl)pyrimidine-5-carbonitrile], for which the Binding % entry is “+ (+ indicates binding activity greater than 0% and up to 50%)”.

Turning to `C=CC(=O)N1CC2(CCN(c3ncnc(-c4c(C)ccc5[nH]ncc45)c3CO)C2)C1` [Compound I-251, 1-(6-(5-(hydroxymethyl)-6-(5-methyl-1H-indazol-4-yl)pyrimidin-4-yl)-2,6-diazaspiro[3.4]octan-2-yl)prop-2-en-1-one], the Binding % result is “+ (+ indicates binding activity greater than 0% and up to 50%)”.

Turning to `C=CC(=O)N1CC2(CCN(c3ccnc(-c4c(C)ccc5[nH]ncc45)c3C#N)C2)C1` [Compound I-252, 4-(2-acryloyl-2,6-diazaspiro[3.4]octan-6-yl)-2-(5-methyl-1H-indazol-4-yl)nicotinonitrile], the Binding % entry is “+ (+ indicates binding activity greater than 0% and up to 50%)”.

Take `C=CC(=O)N1CC2(CCN(c3ncnc(-c4c(C)ccc5[nH]ncc45)c3C(N)=O)C2)C1` [Compound I-253, 4-(2-acryloyl-2,6-diazaspiro[3.4]octan-6-yl)-6-(5-methyl-1H-indazol-4-yl)pyrimidine-5-carboxamide]: the Binding % result was “+ (+ indicates binding activity greater than 0% and up to 50%)”.

`C=CC(=O)N1CC2(CCN(c3ncnc(-c4c(C)ccc5[nH]ncc45)c3C(=O)N(C)C)C2)C1` [Compound I-254, 4-(2-acryloyl-2,6-diazaspiro[3.4]octan-6-yl)-N,N-dimethyl-6-(5-methyl-1H-indazol-4-yl)pyrimidine-5-carboxamide]: the Binding % entry is “+ (+ indicates binding activity greater than 0% and up to 50%)”.

Turning to `C=CC(=O)N1CC2(CCN(c3ncnc(Oc4cccc(C(N)=O)c4)c3C#N)C2)C1` [Compound I-255, 3-((6-(2-acryloyl-2,6-diazaspiro[3.4]octan-6-yl)-5-cyanopyrimidin-4-yl)oxy)benzamide], the Binding % entry is “+ (+ indicates binding activity greater than 0% and up to 50%)”.

With `C=CC(=O)N1CC2(CCN(c3cncc(-c4c(C)ccc5[nH]ncc45)c3C#N)C2)C1` [Compound I-256, 3-(2-acryloyl-2,6-diazaspiro[3.4]octan-6-yl)-5-(5-methyl-1H-indazol-4-yl)isonicotinonitrile], the Binding % entry is “+++ (+++ indicates binding activity greater than 85%)”.

Regarding `C=CC(=O)N1CC2(CCN(c3ncnc(-c4c(C)ccc5[nH]ncc45)c3C)C2)C1` [Compound I-257, 1-(6-(5-methyl-6-(5-methyl-1H-indazol-4-yl)pyrimidin-4-yl)-2,6-diazaspiro[3.4]octan-2-yl)prop-2-en-1-one], the Binding % entry was “+ (+ indicates binding activity greater than 0% and up to 50%)”.

As for `C=CC(=O)N1CC2(CCN(c3ncnc(-c4c(C)ccc5[nH]ncc45)c3CN(C)C)C2)C1` [Compound I-258, 1-(6-(5-((dimethylamino)meth-yl)-6-(5-methyl-1H-indazol-4-yl)pyrimidin-4-yl)-2,6-diazaspiro[3.4]octan-2-yl)prop-2-en-1-one], the Binding % entry was “+ (+ indicates binding activity greater than 0% and up to 50%)”.

On to `C=CC(=O)N1CC2(CCN(c3ncnc(-c4c(C)ccc5[nH]ncc45)c3CC(F)(F)F)C2)C1` [Compound I-259, 1-(6-(6-(5-methyl-1H-indazol-4-yl)-5-(2,2,2-trifluoroethyl)pyrimi-din-4-yl)-2,6-diazaspiro[3.4]octan-2-yl)prop-2-en-1-one], for which the Binding % result was “+ (+ indicates binding activity greater than 0% and up to 50%)”.

As to `C=CC(=O)N1CC2(CCN(c3ncnc(-c4c(C)ccc5[nH]ncc45)c3C(F)(F)F)C2)C1` [Compound I-260, 1-(6-(6-(5-methyl-1H-indazol-4-yl)-5-(trifluoromethyl)pyri-midin-4-yl)-2,6-diazaspiro[3.4]octan-2-yl)prop-2-en-1-one], the Binding % result was “+ (+ indicates binding activity greater than 0% and up to 50%)”.

In the case of `C=CC(=O)N1CC2(CCN(c3ncnc(-c4c(C)ccc5[nH]ncc45)c3N3CCCC3)C2)C1` [Compound I-261, 1-(6-(6-(5-methyl-1H-indazol-4-yl)-5-(pyrrolidin-1-yl)pyrimidin-4-yl)-2,6-diazaspiro[3.4]octan-2-yl)prop-2-en-1-one], the Binding % result is “+ (+ indicates binding activity greater than 0% and up to 50%)”.

Take `C=CC(=O)N1CC2(CCN(c3ncnc(-c4c(C)ccc5[nH]ncc45)c3CC)C2)C1` [Compound I-262, 1-(6-(5-ethyl-6-(5-methyl-1H-indazol-4-yl)pyrimidin-4-yl)-2,6-diazaspiro[3.4]octan-2-yl)prop-2-en-1-one]: the Binding % result was “+ (+ indicates binding activity greater than 0% and up to 50%)”.

For the compound `C=CC(=O)N1CC2(CCN(c3cncc(-c4c(C)ccc5[nH]ncc45)c3C#N)CC2)C1` [Compound I-263, 3-(2-acryloyl-2,7-diazaspiro[3.5]nonan-7-yl)-5-(5-methyl-1H-indazol-4-yl)isonicotinonitrile], the Binding % result is “+ (+ indicates binding activity greater than 0% and up to 50%)”.

Consider `C=CC(=O)N1CC2(CCN(c3cncc(-c4c(C)ccc5cnn(C)c45)c3C#N)C2)C1` [Compound I-264, 3-(2-acryloyl-2,6-diazaspiro[3.4]octan-6-yl)-5-(1,6-dimethyl-1H-indazol-7-yl)isonicotinonitrile], for which the Binding % result is recorded as “++ (++ indicates binding activity from 50 to 85%)”.

With `C=CC(=O)N1CC2(CCN(c3cncc(-c4c(C)ccc5cnn(C)c45)c3C#N)CC2)C1` [Compound I-265, 3-(2-acryloyl-2,7-diazaspiro[3.5]nonan-7-yl)-5-(1,6-dimethyl-1H-indazol-7-yl)isonicotinonitrile], the Binding % entry is “+ (+ indicates binding activity greater than 0% and up to 50%)”.

On to `C/C=C/C(=O)N1CC2(CCN(c3ncnc(-c4c(C)ccc5[nH]ncc45)c3C#N)C2)C1` [Compound I-266, (E)-4-(2-(but-2-enoyl)-2,6-diazaspiro[3.4]octan-6-yl)-6-(5-methyl-1 1H-indazol-4-yl)pyrimidine-5-carbonitrile], for which the Binding % result is “+ (+ indicates binding activity greater than 0% and up to 50%)”.

Turning to `C=CC(=O)N1CC2(CCN(c3nccc(-c4c(C)ccc5[nH]ncc45)c3C#N)C2)C1` [Compound I-267, 2-(2-acryloyl-2,6-diazaspiro[3.4]octan-6-yl)-4-(5-methyl-1H-indazol-4-yl)nicotinonitrile], the Binding % entry is “+ (+ indicates binding activity greater than 0% and up to 50%)”.

In the case of `C#Cc1c(-c2c(C)ccc3[nH]ncc23)ncnc1N1CCC2(CN(C(=O)C=C)C2)C1` [Compound I-268, 1-(6-(5-ethynyl-6-(5-methyl-1H-indazol-4-yl)pyrimidin-4-yl)-2,6-diazaspiro[3.4]octan-2-yl)prop-2-en-1-one], the Binding % entry is “+ (+ indicates binding activity greater than 0% and up to 50%)”.

Consider `C=CC(=O)N1CC2(CCN(c3cncc(-c4c(O)cccc4F)c3C#N)C2)C1` [Compound I-269, 3-(2-acryloyl-2,6-diazaspiro[3.4]octan-6-yl)-5-(2-fluoro-6-hydroxyphenyl)isoni-cotinonitrile], for which the Binding % entry is “+ (+ indicates binding activity greater than 0% and up to 50%)”.
